Tested on: 953936-095-R-J2-PDC spheroids with HUVEC/MSC, viability
Assay: Anticancer human tumor 953936-095-R-J2-PDC patient-derived cervical squamous cell carcinoma cell line growth inhibition [PI3K]
Conditions: for IC50: curve of first compound; for viability, T/C: stronger effect = lower value
Procedure, shortened: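 Three cell types, namely tumor cells, endothelial cells and mesenchymal stem cells, formed each spheroid. Combinations with four PI3K inhibitors were screened at clinically achievable concentrations decreasing by half-log, and spheroid viability was recorded.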

[1] = second compound 0.0316 µM, first compound 0.0316 µM
[2] = second compound 0.0316 µM, first compound 0.1 µM
[3] = second compound 0.0316 µM, first compound 0.316 µM
[4] = second compound 0.0316 µM, first compound 1 µM
[5] = second compound 0.0316 µM, first compound 3.16 µM
[6] = second compound 0.0316 µM, first compound 10 µM
[7] = second compound 0.1 µM, first compound 0.0316 µM
[8] = second compound 0.1 µM, first compound 0.1 µM
[9] = second compound 0.1 µM, first compound 0.316 µM
[10] = second compound 0.1 µM, first compound 1 µM
[11] = second compound 0.1 µM, first compound 3.16 µM
[12] = second compound 0.1 µM, first compound 10 µM
[13] = second compound 0.316 µM, first compound 0.0316 µM
[14] = second compound 0.316 µM, first compound 0.1 µM
[15] = second compound 0.316 µM, first compound 0.316 µM
[16] = second compound 0.316 µM, first compound 1 µM
[17] = second compound 0.316 µM, first compound 3.16 µM
[18] = second compound 0.316 µM, first compound 10 µM
[19] = second compound 1 µM, first compound 0.0316 µM
[20] = second compound 1 µM, first compound 0.1 µM
[21] = second compound 1 µM, first compound 0.316 µM
[22] = second compound 1 µM, first compound 1 µM
[23] = second compound 1 µM, first compound 3.16 µM
[24] = second compound 1 µM, first compound 10 µM
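Further: spheroids exposed to compounds for seven days before read-out.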

How did the IC50 (second compound 0.00316 µM) turn out when `CC1(C)CCC(Nc2ncc(C(F)(F)F)c(-c3c[nH]c4c(P(C)(C)=O)c(C#N)ccc34)n2)CN1` (centres undefined) + COc1c(OCCCN2CCOCC2)ccc2c3n(c(=NC(=O)c4cnc(N)nc4)nc12)CCN3 was run?
The IC50 was 0.0316 µM.

And the IC50 (second compound 0.01 µM)?
The IC50 was < 0.0316 µM.

And the IC50 (second compound 0.0316 µM)?
The IC50 was < 0.0316 µM.

What about the IC50 (second compound 0.1 µM) of the same molecule?
The IC50 was < 0.0316 µM.

And the IC50 (second compound 0.316 µM)?
Its IC50 is < 0.0316 µM.

And the IC50 (second compound 1 µM)?
Its IC50 is < 0.0316 µM.

What about the viability, T/C (second compound 0.00316 µM, first compound 0.0316 µM) of the same molecule?
Its viability, T/C is 45.6%.

What about the viability, T/C (second compound 0.00316 µM, first compound 0.1 µM) of the same molecule?
Its viability, T/C is 47%.

And the viability, T/C (second compound 0.00316 µM, first compound 0.316 µM)?
Its viability, T/C is 53.5%.

And the viability, T/C (second compound 0.00316 µM, first compound 1 µM)?
Its viability, T/C is 47.1%.

What about the viability, T/C (second compound 0.00316 µM, first compound 3.16 µM) of the same molecule?
Its viability, T/C is 52%.

And the viability, T/C (second compound 0.00316 µM, first compound 10 µM)?
Its viability, T/C is 5.49%.

And the viability, T/C (second compound 0.01 µM, first compound 0.0316 µM)?
Its viability, T/C is 46.2%.

And the viability, T/C (second compound 0.01 µM, first compound 0.1 µM)?
The viability, T/C was 42.2%.

And the viability, T/C (second compound 0.01 µM, first compound 0.316 µM)?
Its viability, T/C is 49.5%.

What about the viability, T/C (second compound 0.01 µM, first compound 1 µM) of the same molecule?
The viability, T/C was 35.5%.

And the viability, T/C (second compound 0.01 µM, first compound 3.16 µM)?
Its viability, T/C is 44%.

What about the viability, T/C (second compound 0.01 µM, first compound 10 µM) of the same molecule?
Its viability, T/C is 6.01%.

And the viability, T/C [1]?
Its viability, T/C is 26.9%.

What about the viability, T/C [2] of the same molecule?
Its viability, T/C is 22.6%.

And the viability, T/C [3]?
Its viability, T/C is 25.4%.

And the viability, T/C [4]?
The viability, T/C was 25.5%.

What about the viability, T/C [5] of the same molecule?
Its viability, T/C is 24.4%.

And the viability, T/C [6]?
The viability, T/C was 1.19%.

And the viability, T/C [7]?
The viability, T/C was 11.9%.

And the viability, T/C [8]?
The viability, T/C was 16.5%.

What about the viability, T/C [9] of the same molecule?
The viability, T/C was 12.2%.

And the viability, T/C [10]?
The viability, T/C was 11.8%.

What about the viability, T/C [11] of the same molecule?
The viability, T/C was 8.68%.

What about the viability, T/C [12] of the same molecule?
The viability, T/C was 0.34%.

And the viability, T/C [13]?
Its viability, T/C is 5.51%.

What about the viability, T/C [14] of the same molecule?
Its viability, T/C is 5.07%.

What about the viability, T/C [15] of the same molecule?
The viability, T/C was 3.84%.

What about the viability, T/C [16] of the same molecule?
Its viability, T/C is 4.98%.

What about the viability, T/C [17] of the same molecule?
The viability, T/C was 3.94%.

And the viability, T/C [18]?
Its viability, T/C is 0.16%.

What about the viability, T/C [19] of the same molecule?
Its viability, T/C is 1.33%.

And the viability, T/C [20]?
The viability, T/C was 1.62%.

And the viability, T/C [21]?
The viability, T/C was 1.12%.

And the viability, T/C [22]?
Its viability, T/C is 1.34%.

And the viability, T/C [23]?
The viability, T/C was 1.37%.

And the viability, T/C [24]?
Its viability, T/C is 0.31%.

`CNC(=O)c1ccc(N2C(=S)N(c3ccc(C#N)c(C(F)(F)F)c3)C(=O)C2(C)C)cc1F` + Cc1nc(NC(=O)N2CCCC2C(N)=O)sc1-c1ccnc(C(C)(C)C(F)(F)F)c1 was tested. Which IC50 (second compound 0.0316 µM) did it give?
Its IC50 is > 10 µM.

And the IC50 (second compound 0.1 µM)?
The IC50 was > 10 µM.

What about the IC50 (second compound 0.316 µM) of the same molecule?
Its IC50 is > 10 µM.

And the IC50 (second compound 1 µM)?
The IC50 was 0.053 µM.

What about the IC50 (second compound 3.16 µM) of the same molecule?
The IC50 was < 0.0316 µM.

What about the IC50 (second compound 10 µM) of the same molecule?
Its IC50 is < 0.0316 µM.

And the viability, T/C [1]?
Its viability, T/C is 85.4%.

And the viability, T/C [2]?
The viability, T/C was 92.7%.

And the viability, T/C [3]?
The viability, T/C was 108%.

And the viability, T/C [4]?
The viability, T/C was 105%.

What about the viability, T/C [5] of the same molecule?
The viability, T/C was 83.5%.

What about the viability, T/C [6] of the same molecule?
Its viability, T/C is 79.7%.

What about the viability, T/C [7] of the same molecule?
The viability, T/C was 81.2%.

What about the viability, T/C [8] of the same molecule?
Its viability, T/C is 93%.

What about the viability, T/C [9] of the same molecule?
The viability, T/C was 78.3%.

And the viability, T/C [10]?
Its viability, T/C is 76.9%.

What about the viability, T/C [11] of the same molecule?
The viability, T/C was 74.7%.

And the viability, T/C [12]?
The viability, T/C was 73.9%.

And the viability, T/C [13]?
Its viability, T/C is 64.1%.

What about the viability, T/C [14] of the same molecule?
The viability, T/C was 65.9%.

And the viability, T/C [15]?
The viability, T/C was 65.3%.

And the viability, T/C [16]?
Its viability, T/C is 59.9%.

And the viability, T/C [17]?
The viability, T/C was 62.8%.

What about the viability, T/C [18] of the same molecule?
Its viability, T/C is 54.3%.

What about the viability, T/C [19] of the same molecule?
Its viability, T/C is 54.1%.

And the viability, T/C [20]?
The viability, T/C was 44.2%.

What about the viability, T/C [21] of the same molecule?
Its viability, T/C is 44.3%.

And the viability, T/C [22]?
Its viability, T/C is 48.6%.

What about the viability, T/C [23] of the same molecule?
The viability, T/C was 41.4%.

And the viability, T/C [24]?
The viability, T/C was 38.1%.

What about the viability, T/C (second compound 3.16 µM, first compound 0.0316 µM) of the same molecule?
The viability, T/C was 26.6%.

What about the viability, T/C (second compound 3.16 µM, first compound 0.1 µM) of the same molecule?
Its viability, T/C is 29.8%.

And the viability, T/C (second compound 3.16 µM, first compound 0.316 µM)?
Its viability, T/C is 24.4%.

And the viability, T/C (second compound 3.16 µM, first compound 1 µM)?
Its viability, T/C is 25.5%.

What about the viability, T/C (second compound 3.16 µM, first compound 3.16 µM) of the same molecule?
Its viability, T/C is 30%.

And the viability, T/C (second compound 3.16 µM, first compound 10 µM)?
Its viability, T/C is 24.8%.

What about the viability, T/C (second compound 10 µM, first compound 0.0316 µM) of the same molecule?
The viability, T/C was 12.2%.

And the viability, T/C (second compound 10 µM, first compound 0.1 µM)?
The viability, T/C was 11.2%.

And the viability, T/C (second compound 10 µM, first compound 0.316 µM)?
Its viability, T/C is 12.1%.

What about the viability, T/C (second compound 10 µM, first compound 1 µM) of the same molecule?
Its viability, T/C is 11%.

And the viability, T/C (second compound 10 µM, first compound 3.16 µM)?
The viability, T/C was 11.6%.

And the viability, T/C (second compound 10 µM, first compound 10 µM)?
Its viability, T/C is 10.7%.

From PubChem BioAssay AID1963971 (Molecular Pharmacology Branch, DTP, NCI, 2024)
